Among the test systems are RPMI-8226 leukemia; BT-549 breast; SF-268 CNS; OVCAR-3 ovarian; MCF7 breast; IGROV1 ovarian; K-562 leukemia; CAKI-1 renal; LOX IMVI melanoma; MDA-MB-435.
Common to all, as to assay: NCI-60 cell line screen, 48 h

The structures appear in SMILES notation. Values joined by “and” are separate entries in the source; they are usually repeats but may differ in a detail not shown here. Equal entries are not always repeated.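 Following 48 hours of exposure in 96-well plates, responses at five concentrations were used to interpolate endpoints linearly. Here, GI50 denotes the concentration required for 50% inhibition of growth. Definition used: TGI = concentration required for complete inhibition of growth.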

Consider seven compounds from PubChem BioAssay (NCI).

In the case of `N#C/C(=C\c1ccc([N+](=O)[O-])cc1)n1nnc2cc(F)c(F)cc21`, the GI50 was 2.42 µM in the test with RPMI-8226 leukemia; 1.77 µM in the test on BT-549 breast; 3.13 µM in the test with SF-268 CNS; 1.85 µM with OVCAR-3 ovarian; 1.29 µM in the test with MCF7 breast; 1.72 µM with IGROV1 ovarian. Moreover, the GI50 in the test on K-562 leukemia was 3.14 µM; in the test with CAKI-1 renal it was 1.54 µM; in the test with LOX IMVI melanoma, 1.55 µM; in the test with MDA-MB-435, 2.32 µM. Moreover, the TGI stood at 6.67 µM in the test on RPMI-8226 leukemia; 4.17 µM in the test on BT-549 breast; 12.1 µM with SF-268 CNS; 3.58 µM in the test with OVCAR-3 ovarian; 3.4 µM in the test on MCF7 breast; 4 µM in the test on IGROV1 ovarian. The TGI is over 100 µM in the test with K-562 leukemia, 2.92 µM in the test with CAKI-1 renal, 2.97 µM with LOX IMVI melanoma and 5.85 µM in the test on MDA-MB-435.
`COc1ccc(/C=C/C(=O)c2ccc(B(O)O)cc2)cc1O`: the GI50 in the test with RPMI-8226 leukemia is 3.27 µM; with BT-549 breast, 6.8 µM; with SF-268 CNS, 19.9 µM; in the test on OVCAR-3 ovarian, 7.27 µM; with MCF7 breast, 3.48 µM; in the test with IGROV1 ovarian it was 12.5 µM. In addition, the GI50 in the test with K-562 leukemia was 2.86 µM; in the test with CAKI-1 renal, 17.7 µM; in the test on LOX IMVI melanoma, 4.66 µM; in the test with MDA-MB-435, 2.11 µM. Also, the TGI in the test on RPMI-8226 leukemia was 23 µM; in the test on BT-549 breast, 20.1 µM; in the test on SF-268 CNS it was 78.8 µM; with OVCAR-3 ovarian, 20.1 µM; with MCF7 breast it was 32.5 µM; in the test on IGROV1 ovarian, over 54.4 µM. Further, the TGI in the test with K-562 leukemia was over 100 µM; in the test on CAKI-1 renal, over 70.8 µM; with LOX IMVI melanoma, 19.1 µM; with MDA-MB-435 it was 5.5 µM.
As to `O=C(O)c1cc(C(=O)C(=O)c2cc(C(=O)O)c(O)c3ccccc23)c2ccccc2c1O`, the TGI in the test on RPMI-8226 leukemia, with BT-549 breast, in the test with SF-268 CNS, in the test on OVCAR-3 ovarian, with MCF7 breast and in the test on IGROV1 ovarian was over 100 µM throughout. Moreover, the TGI in the test with K-562 leukemia, with CAKI-1 renal, with LOX IMVI melanoma and with MDA-MB-435 was over 100 µM each time.
As to `O=C(NCCNc1nccc(-c2c(-c3ccc(F)cc3)nc3sccn23)n1)Nc1cccc(C(F)(F)F)c1`, the GI50 in the test with RPMI-8226 leukemia was 3.52 µM; with BT-549 breast it was 13.2 µM; with SF-268 CNS it was 12.2 µM; in the test with OVCAR-3 ovarian, 17.7 µM; in the test on MCF7 breast it was 3.73 µM; in the test on IGROV1 ovarian, 4.59 µM. Moreover, the GI50 with K-562 leukemia is 6.14 µM; with CAKI-1 renal, 3.68 µM; in the test with LOX IMVI melanoma, 5.36 µM; with MDA-MB-435, 3.12 µM. For the same compound, the TGI is 34 µM with RPMI-8226 leukemia; 30.5 µM in the test with BT-549 breast; 41.1 µM with SF-268 CNS; 94.5 µM in the test with OVCAR-3 ovarian; 19.5 µM in the test on MCF7 breast; 20 µM in the test with IGROV1 ovarian. Besides, the TGI was over 100 µM in the test on K-562 leukemia, 27.6 µM in the test on CAKI-1 renal, 20.7 µM in the test with LOX IMVI melanoma and 11.4 µM in the test on MDA-MB-435.
For the compound `O=C1NC(=N[C@@H]2C[C@H]2c2ccccc2)S/C1=C\c1ccc2ncccc2c1`, the GI50 with RPMI-8226 leukemia was 1.28 µM; in the test with BT-549 breast, 1.57 µM; in the test with SF-268 CNS, 2.25 µM; with OVCAR-3 ovarian, 3.01 µM; in the test with MCF7 breast it was 0.795 µM; in the test on IGROV1 ovarian, 2.66 µM. Further, the GI50 with K-562 leukemia was 1.42 µM; with CAKI-1 renal it was 1.03 µM; in the test on LOX IMVI melanoma, 1.22 µM; in the test on MDA-MB-435, 0.688 µM. Also, the TGI in the test on RPMI-8226 leukemia was 7.52 µM; in the test with BT-549 breast it was 6.49 µM; in the test with SF-268 CNS it was 8.02 µM; with OVCAR-3 ovarian, 10.3 µM; in the test with MCF7 breast, 4.95 µM; with IGROV1 ovarian, 11.9 µM. For the same compound, the TGI in the test with K-562 leukemia is over 25 µM; in the test with CAKI-1 renal, 6.46 µM; with LOX IMVI melanoma, 12.1 µM; with MDA-MB-435, 2.85 µM.
`CCN1C2=C(SC(=S)C1=C1SC(C(=O)c3ccccc3)=C(C(=O)c3ccccc3)S1)SC(=Nc1ccccc1)C2=O`: the GI50 in the test with RPMI-8226 leukemia is 2.13 µM; with BT-549 breast it was 5.2 µM; in the test on SF-268 CNS it was 8.24 µM; with OVCAR-3 ovarian, 30.9 µM; in the test with MCF7 breast, 7.44 µM; with IGROV1 ovarian it was 23 µM. In addition, the GI50 is 4.91 µM in the test on K-562 leukemia, 48 µM in the test on CAKI-1 renal, 1.43 µM in the test with LOX IMVI melanoma and 9.41 µM in the test with MDA-MB-435. Further, the TGI is over 100 µM with RPMI-8226 leukemia; 42.7 µM with BT-549 breast; over 100 µM in the test with SF-268 CNS; over 100 µM in the test on OVCAR-3 ovarian; over 100 µM in the test with MCF7 breast; over 100 µM in the test on IGROV1 ovarian. Also, the TGI in the test with K-562 leukemia is over 100 µM; in the test on CAKI-1 renal, over 100 µM; in the test with LOX IMVI melanoma, 7.06 µM; in the test on MDA-MB-435 it was over 100 µM.
Consider `Nc1ncnc2occ(-c3ccc(NC(=O)Nc4cc(C(F)(F)F)ccc4F)cc3)c12`, for which the GI50 is 6.29 µM and 5.04 µM with RPMI-8226 leukemia; 6.83 µM and 3.42 µM with BT-549 breast; 4.68 µM and 2.34 µM in the test on SF-268 CNS; 5.44 µM and 3.61 µM with OVCAR-3 ovarian; 2.37 µM and 1.16 µM in the test on MCF7 breast; 3.82 µM and 1.27 µM with IGROV1 ovarian. Moreover, the GI50 is 2.18 µM and 0.972 µM in the test with K-562 leukemia; 4.36 µM and 1.78 µM in the test on CAKI-1 renal; 4.83 µM and 2.69 µM in the test on LOX IMVI melanoma; 4.35 µM and 2.37 µM in the test with MDA-MB-435. Further, the TGI in the test on RPMI-8226 leukemia is 17.7 µM and 16.2 µM; with BT-549 breast it was 17.4 µM and 9.93 µM; with SF-268 CNS it was 12.5 µM and 8.02 µM; in the test on OVCAR-3 ovarian, 12.1 µM and 9.52 µM; in the test on MCF7 breast, 17.7 µM and 12.6 µM; in the test on IGROV1 ovarian, 14.1 µM and 7.18 µM. For the same compound, the TGI in the test with K-562 leukemia was 19 µM and > 25 µM; with CAKI-1 renal it was 18.2 µM and 9 µM; in the test on LOX IMVI melanoma, 14.9 µM and 10.2 µM; in the test on MDA-MB-435 it was 11.3 µM and 5.59 µM.
